Assay results reported in US7622494B2, “Chemical compounds” (SmithKline Beecham Corporation, priority 2003, dated 2009).
Where a name gives a salt, the structure may show the parent alone.

Each compound was assayed on episomal HPV-16 DNA in W12-20850 cells (assay: W-12 cellular assay (hybrid capture quantification of episomal HPV-16 DNA)). Details: Human papillomavirus 16, 96 h; W12-20850 cells, four days incubation, episomal HPV-16 DNA by hybrid capture, inhibition relative to untreated control cells; read-out: W-12.
Format: cell-based, HPV16
Experimental: Compounds of the current invention are believed useful in the treatment and/or prophylaxis of conditions and diseases associated with HPV infection. Activity mediated through HPV was determined using the following W-12 cellular assay.
The W12 cell line used contains HPV16 DNA and was derived from a low-grade cervical dysplasia tissue by Margaret Stanley and subsequently clonally selected by Paul Lambert (University of Wisconsin). One of these clones, W12-20850, contains 1000 copies of episomal HPV16 DNA and was used in the cell-based assay. W12-20850 cells were routinely cultured with a gamma-irradiated (6000 rads) feeder layer of 3T3 cells. Assays, however, were run in the absence of a 3T3 feeder layer. W12-20850 and 3T3 cells were routinely split when they were sub-confluent. W12-20850 were grown in W12 Medium which is constituted of 25% DMEM (Gibco BRL, Cat # 12430-047), 75% F12 Media (Gibco BRL, Cat # 11765-021) and 2.5% FBS. The additives include […] Adenine (Sigma, Cat # A-9795), […] Hydrocortisone (Calbiochem, Cat # 386698); 5.0 mg/ml Bovine Insulin (Sigma, Cat # I-1882), 8.4 ng/ml cholera toxin (Fluka, Cat # 26694) and 10 ng/ml EGF (Invitrogen, Cat # 13247-051). 3T3 cells were grown in DMEM containing 10% FBS. Cell lines were incubated at 37° C., in the presence of 5% CO2.
For the assay, W12-20850 cells were seeded into a 96 well plate-containing compound. Plates were incubated at 37° C. in the presence of 5% CO2, for four days. On the fourth day, cells were lysed and the amount of episomal. HPV-16 DNA was quantified using a non-radioactive hybrid capture technique with HPV-16 specific capture and detection probes. The percent inhibition relative to untreated control cells' was then determined.
The hybrid capture assay is run in a 96 well plate format. Hybridization plates (Nunc Maxisorb Cat # 450320) were coated with a mixture of capture probe and ReactiBind solution for at least 4 hours and then washed with 0.2×SSC, 0.05% Tween20 (SSCT) prior to blocking with […] of 0.2 N NaOH, 1% Igepal, 10 mg/ml hsDNA for 6-8 hours. The hybridization was carried out by mixing 27 μl of lysed cells with 45 μl of denatured detection probe in 6M guanidine isothiocyanate. To prevent evaporation, 50 μl of mineral oil was added to each well. The plate was then heated to 90° C. for 6.5 minutes and the hybridization continued at 42° C. overnight. Assay plates were washed 6 times with SSC/T. Anti-digoxigenin HRP-conjugated Ab (Boehringer Mannheim 1207733, 1:5000) was incubated in the wells for 30 min at room temperature and washed with PBS/0.05% Tween-20. SuperSignal LBA substrate (Pierce Cat # 37070) was added, and chemiluminescence was measured using Wallac 1420 Victor plate reader.

| Compound | IC50 [nM] |
| --- | --- |
| Brc1ccc2[nH]c3c(c2c1)CCC3NCCc1ccccc1 (stereo not shown) [Example 50, 7-Bromo-N-(2-phenylethyl)-1,2,3,4-tetrahidrocyclopenta[b]indol-3-amine hydrochloride salt] | 11000 |
| C[C@@H](N[C@@H]1CCc2c1[nH]c1ccc(Br)cc21)c1ccccc1 [Example 51, (3R)-7-Bromo-N-[(1R)-1-phenylethyl]-1,2,3,4-tetrahydrocyclooenta[b]indol-3-amine hydrochloride salt] | 122 |
| C[C@@H](N[C@H]1CCc2c1[nH]c1ccc(Br)cc21)c1ccccc1 [Example 52, (3S)-7-Bromo-N-[(1R)-1-phenylethyl]-1,2,3,4-tetrahydrocyclobenta[b]indol-3-amine hydrochloride salt] | 29000 |
| C[C@@H](NC1CCCCc2c1[nH]c1ccc(Br)cc21)c1ccccc1 (stereo partly drawn) [Example 55, 2-Bromo-N-[(1R)-1-phenylethyl]-5,6,7,8,9,10-hexahydrocycloheota[b]indol-6-amine hydrochloride] | 1000 |
| Brc1ccc2[nH]c3c(c2c1)CCCCC3NCCc1ccccc1 (stereo not shown) [Example 56, 2-Bromo-N-(2-phenylethyl)-5,6,7,8,9,10-hexahydrocycloheDta[b]indol-6-amine hydrochloride] | 774 |
| Brc1ccc2c3c([nH]c2c1)C(NC1Cc2ccccc2C1)CCC3 (stereo not shown) [Example 63, 7-Bromo-N-(2.3-dihydro-1H-inden-2-yl)-2,3,4,9-tetrahydro-1H-carbazol-1-amine hydrochloride] | 3900 |
| Brc1ccc2[nH]c3c(c2c1)CCCC3OCc1ccccc1 (stereo not shown) [Example 64, 6-Bromo-1-[(phenylmethyl)oxy]-2,3,4,9-tetrahydro-1H-carbazole] | 95 |
| CC(C)NC(=O)NC1CCCc2c1[nH]c1ccc(Br)cc21 (stereo not shown) [Example 65, N-(6-Bromo-2,3,4,9-tetrahydro-1H-carbazol-1-yl)-N′-isopropylurea] | 5000 |
| COC(=O)NC1CCCc2c1[nH]c1ccc(Br)cc21 (stereo not shown) [Example 66, Methyl 6-bromo-2,3,4,9-tetrahydro-1H-carbazol-1-ylcarbamate] | 165 |
| CC(=O)NC1CCCc2c1[nH]c1ccc(Br)cc21 (stereo not shown) [Example 67, N-(6-Bromo-2,3,4,9-tetrahydro-1H-carbazol-1-yl)acetamide] | 13000 |
| O=C(NC1CCCc2c1[nH]c1ccc(Br)cc21)C1CCCCC1 (stereo not shown) [Example 68, N-(6-Bromo-2,3,4,9-tetrahydro-1H-carbazol-1-yl)cyclohexanecarboxamide] | 380 |
| CS(=O)(=O)NC1CCCc2c1[nH]c1ccc(Br)cc21 (stereo not shown) [Example 69, N-(6-Bromo-2,3,4,9-tetrahydro-1H-carbazol-1-yl)methanesulfonamide] | 2300 |
| NC(=O)NC1CCCc2c1[nH]c1ccc(Br)cc21 (stereo not shown) [Example 70, N-(6-Bromo-2,3,4,9-tetrahydro-1H-carbazol-1-yl)urea] | 10300 |

Same assay, conditions: Human papillomavirus 16, W12-20850, 96 h, read-out: W-12

| Compound | IC50 [nM] |
| --- | --- |
| Cc1ccc2[nH]c3c(c2c1)CCC[C@@H]3N[C@@H](C)c1ccccc1 [Example 46, (1S)-6-Methyl-N-[(1S)-1-phenylethyl]-2,3,4,9-tetrahydro-1H-carbazol-1-amine hydrochloride salt] | 8600 |
| Cc1ccc2[nH]c3c(c2c1)CCC[C@H]3N[C@@H](C)c1ccccc1 [Example 47, (1R)-6-Methyl-N-[(1S)-1-phenylethyl]-2,3,4,9-tetrahydro-1H-carbazol-1-amine hydrochloride salt] | 160 |
| C[C@@H](NC1CCCc2c1[nH]c1ccc([N+](=O)[O-])cc21)c1ccccc1 (stereo partly drawn) [Example 49, 6-Nitro-N-[(1R)-1-phenylethyl]-2,3,4,9-tetrahydro-1H-carbazol-1-amine hydrochloride salt] | 83 |
| COc1ccc2[nH]c3c(c2c1)CCCC3NCc1ccccc1 (stereo not shown) [Example 53, N-Benzyl-6-methoxy-2,3,4,9-tetrahydro-1H-carbazol-1-amine hydrochloride salt] | 7600 |
| Brc1ccc2[nH]c3c(c2c1)CCCCC3NCc1ccccc1 (stereo not shown) [Example 54, N-Benzyl-2-bromo-5,6,7,8,9,10-hexahydrocyclohepta[b]indol-6-amine hydrochloride] | 1100 |
| Fc1ccc(CNC2CCCc3c2[nH]c2ccc(Br)cc32)cc1 (stereo not shown) [Example 57, 6-Bromo-N-(4-fluorobenzyl)-2,3,4,9-tetrahydro-1H-carbazol-1-amine hydrochloride] | 139 |
| FC(F)(F)c1ccc2[nH]c3c(c2c1)CCCC3NCc1ccccc1 (stereo not shown) [Example 58, N-Benzyl-6-(trifluoromethyl)-2,3,4,9-tetrahydro-1H-carbazol-1-amine hydrochloride] | 1000 |
| C[C@@H](NC1CCCc2c1[nH]c1ccc(C(F)(F)F)cc21)c1ccccc1 (stereo partly drawn) [Example 59, N-[(1R)-1-Phenylethyl]-6-(trifluoromethyl)-2,3,4,9-tetrahydro-1H-carbazol-1-amine hydrochloride] | 287 |
| Brc1ccc2[nH]c3c(c2c1)CCCC3NC(c1ccccc1)c1ccccc1 (stereo not shown) [Example 60, N-Benzhydryl-6-bromo-2,3,4,9-tetrahydro-1H-carbazol-1-amine hydrochloride] | 14 |
| Brc1ccc2c3c([nH]c2c1)C(NCc1ccccc1)CCC3 (stereo not shown) [Example 61, N-Benzyl-7-bromo-2,3,4,9-tetrahydro-1H-carbazol-1-amine hydrochloride] | 11000 |
| C[C@@H](NC1CCCc2c1[nH]c1cc(Br)ccc21)c1ccccc1 (stereo partly drawn) [Example 62, 7-Bromo-N-[(1R)-1-phenylethyl]-2,3,4,9-tetrahydro-1H-carbazol-1-amine hydrochloride] | 8000 |
| Brc1cccc2c3c([nH]c12)C(NCc1ccccc1)CCC3 (stereo not shown) [Example 71, N-Benzyl-8-bromo-2,3,4,9-tetrahydro-1H-carbazol-1-amine hydrochloride] | 11400 |
